Test results: US9255110B2 (Hoffmann-La Roche Inc., priority 2010, dated 2016)
Structures can show the parent of a compound that is named as a salt.

Biological target: IRAK-4 (Homo sapiens (Human), UniProt Q9NWZ3)
Assay: In vitro IRAK-4 kinase assay
Type: biochemical
Details: purified recombinant IRAK-4, 50 uM ATP, 33P peptide phosphorylation
Description: Purified recombinant IRAK-4 protein was incubated with 250 uM synthetic peptide ([…]) in 30 ul of kinase buffer including (20 mM MOPS pH7.2, 25 mM beta glycerol phosphate, 5 mM EGTA, 1 mM sodium orthovanadate, 1 mM DTT, 50 uM ATP, 20 mM MgCl2, 10 uCi γ-^33P, 0.1% BSA) for the indicated time. For purified recombinant IRAK-1 protein kinase assay, 50 uM ATP was used. A 25 ul aliquot of the reaction mixture was transferred on to p81 phosphocellulose squares (Upstate Biotechnology, Lake Placid, N.Y.). The assay squares were washed three times with 0.75% phosphoric acid and once with acetone. Enzyme activity was measured by determining the bound radioactivity by liquid scintillation counting.

IRAK-4, sequence (Q9NWZ3 whole entry, species assumed): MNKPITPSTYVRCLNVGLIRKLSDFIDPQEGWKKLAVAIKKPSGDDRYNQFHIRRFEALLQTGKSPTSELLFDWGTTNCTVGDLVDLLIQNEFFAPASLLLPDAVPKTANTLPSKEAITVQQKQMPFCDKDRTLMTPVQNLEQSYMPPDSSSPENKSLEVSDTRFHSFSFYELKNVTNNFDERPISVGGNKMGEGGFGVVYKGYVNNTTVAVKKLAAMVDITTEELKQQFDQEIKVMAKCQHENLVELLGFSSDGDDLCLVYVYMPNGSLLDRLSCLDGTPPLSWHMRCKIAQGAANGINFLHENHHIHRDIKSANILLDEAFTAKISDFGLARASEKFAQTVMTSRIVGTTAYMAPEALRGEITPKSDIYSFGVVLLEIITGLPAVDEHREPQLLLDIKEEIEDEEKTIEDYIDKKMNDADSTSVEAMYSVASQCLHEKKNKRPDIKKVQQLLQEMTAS

| Compound | IC50 [nM] |
| --- | --- |
| Nc1cccc(NC(=O)c2cnn3cccnc23)c1N1CCCCC1 [Example 63, Pyrazolo[1,5-alpha]pyrimidine-3-carboxylic acid (3-amino-2-piperidin-1-yl-phenyl)-amide] | 156 |
| CC[C@@H](CO)Nc1ncc2scc(C(=O)Nc3cc(Cl)ccc3OC)c2n1 [Example 131, 2-(1-Hydroxymethyl-propylamino)-thieno[3,2-d]pyrimidine-7-carboxylic acid (5-chloro-2-methoxy-phenyl)-amide] | 2230 |
| Cc1ncoc1COc1ccc(Cl)cc1NC(=O)c1cnn2cccnc12 [Example 121, Pyrazolo[1,5-alpha]pyrimidine-3-carboxylic acid [5-chloro-2-(4-methyl-oxazol-5-ylmethoxy)-phenyl]-amide] | 1550 |
| COc1c(C)cc(C)cc1NC(=O)c1cnn2cccnc12 [Example 168, Pyrazolo[1,5-alpha]pyrimidine-3-carboxylic acid (2-methoxy-3,5-dimethyl-phenyl)-amide] | 6520 |
| O=C(Nc1ccc2ncccc2c1)c1csc2cnc(NCCO)nc12 [Example 75, 2-(2-Hydroxy-ethylamino)-thieno[3,2-d]pyrimidine-7-carboxylic acid quinolin-6-ylamide] | 300 |
| COc1ccc(Br)cc1NC(=O)c1cnn2cccnc12 [Example 127, Pyrazolo[1,5-alpha]pyrimidine-3-carboxylic acid (5-bromo-2-methoxy-phenyl)-amide] | 2140 |
| C=Cc1ccc(OC)c(NC(=O)c2cnn3cccnc23)c1 [Example 143, Pyrazolo[1,5-alpha]pyrimidine-3-carboxylic acid (2-methoxy-5-vinyl-phenyl)-amide] | 2750 |
| COc1ccc(Cl)cc1NC(=O)c1cnn2cccnc12 [Example 123, Pyrazolo[1,5-alpha]pyrimidine-3-carboxylic acid (5-chloro-2-methoxy-phenyl)-amide] | 1630 |
| COCCCOc1ccc(Cl)cc1NC(=O)c1cnn2cccnc12 [Example 138, Pyrazolo[1,5-alpha]pyrimidine-3-carboxylic acid [5-chloro-2-(3-methoxy-propoxy)-phenyl]-amide] | 2420 |
| O=C(Nc1cccc(NCCCO)c1N1CCCCC1)c1cnn2cccnc12 [Example 144, Pyrazolo[1,5-alpha]pyrimidine-3-carboxylic acid [3-(3-hydroxy-propylamino)-2-piperidin-1-yl-phenyl]-amide] | 2850 |
| COc1cc2ccc(CO)cc2cc1NC(=O)c1cnn2cccnc12 [Example 82, Pyrazolo[1,5-alpha]pyrimidine-3-carboxylic acid (7-hydroxymethyl-3-methoxy-naphthalen-2-yl)-amide] | 358 |
| CN1CCN(c2ccc(Cl)cc2NC(=O)c2cnn3cccnc23)CC1 [Example 97, Pyrazolo[1,5-alpha]pyrimidine-3-carboxylic acid [5-chloro-2-(4-methyl-piperazin-1-yl)-phenyl]-amide] | 512 |
| COc1ccc(Cl)cc1NC(=O)c1csc2cncnc12 [Example 128, Thieno[3,2-d]pyrimidine-7-carboxylic acid (5-chloro-2-methoxy-phenyl)-amide] | 2200 |
| O=C(Nc1cc(Cl)ccc1N1CCOCC1)c1cnn2cccnc12 [Example 99, Pyrazolo[1,5-alpha]pyrimidine-3-carboxylic acid (5-chloro-2-morpholin-4-yl-phenyl)-amide] | 523 |
| COc1cc(CO)ccc1NC(=O)c1cnn2cccnc12 [Example 177, Pyrazolo[1,5-alpha]pyrimidine-3-carboxylic acid (4-hydroxymethyl-2-methoxy-phenyl)-amide] | 8670 |
| O=C(Nc1cc(Cl)ccc1CCCCO)c1cnn2cccnc12 [Example 145, Pyrazolo[1,5-alpha]pyrimidine-3-carboxylic acid [5-chloro-2-(4-hydroxy-butyl)-phenyl]-amide] | 2950 |
| COc1cnc2c(C(=O)Nc3cc(Cl)ccc3N3CCC(CN)CC3)cnn2c1 [Example 71, 6-Methoxy-pyrazolo[1,5-alpha]pyrimidine-3-carboxylic acid [2-(4-aminomethyl-piperidin-1-yl)-5-chloro-phenyl]-amide] | 254 |
| COc1ccccc1NC(=O)c1cnn2cccnc12 [Example 171, Pyrazolo[1,5-alpha]pyrimidine-3-carboxylic acid (2-methoxy-phenyl)-amide] | 7340 |
| 2-(cis-2-amino-cyclohexylamino)-thieno[3,2-d]pyrimidine-7-carboxylic acid (5,6-dimethoxy-pyridin-2-yl)-amide [Example 27] | 31 |
| NCC1CCN(c2ccc(Cl)cc2NC(=O)c2cnn3cccnc23)C1 (stereo not drawn) [Example 101, Pyrazolo[1,5-alpha]pyrimidine-3-carboxylic acid [2-(3-aminomethyl-pyrrolidin-1-yl)-5-chloro-phenyl]-amide] | 564 |
| COc1ccc(C)cc1NC(=O)c1cnn2cccnc12 [Example 153, Pyrazolo[1,5-alpha]pyrimidine-3-carboxylic acid (2-methoxy-5-methyl-phenyl)-amide] | 3770 |
| CC(N)C1CCN(c2ccc(Cl)cc2NC(=O)c2cnn3cccnc23)C1 (stereo not drawn) [Example 148, Pyrazolo[1,5-alpha]pyrimidine-3-carboxylic acid {2-[3-(1-amino-ethyl)-pyrrolidin-1-yl]-5-chloro-phenyl}-amide hydrochloride] | 3080 |
| COc1cnc2c(C(=O)Nc3cc(Cl)ccc3N3CCC(CO)CC3)cnn2c1 [Example 29] | 33 |
| COc1cc(-c2ccccc2)ccc1NC(=O)c1cnn2cccnc12 [Example 165, Pyrazolo[1,5-alpha]pyrimidine-3-carboxylic acid (3-methoxy-biphenyl-4-yl)-amide] | 5200 |
| COc1cc(C(=O)NCCO)ccc1NC(=O)c1cnn2cccnc12 [Example 146, Pyrazolo[1,5-alpha]pyrimidine-3-carboxylic acid [4-(2-hydroxy-ethylcarbamoyl)-2-methoxy-phenyl]-amide] | 2960 |
| COc1ccc(Cl)cc1NC(=O)c1csc2cnc(NCCO)nc12 [Example 132, 2-(2-Hydroxy-ethylamino)-thieno[3,2-d]pyrimidine-7-carboxylic acid (5-chloro-2-methoxy-phenyl)-amide] | 2240 |

Continued by falling IC50, values first:

| IC50 [nM] | Compound |
| --- | --- |
| 8090 | COc1ccc(Cl)cc1NC(=O)c1csc2cnc(NCCNC(C)=O)nc12 [Example 175, 2-(2-Acetylamino-ethylamino)-thieno[3,2-d]pyrimidine-7-carboxylic acid-(5-chloro-2-methoxy-phenyl)-amide] |
| 7650 | COc1cc(C(=O)N(C)C)ccc1NC(=O)c1cnn2cccnc12 [Example 172, Pyrazolo[1,5-alpha]pyrimidine-3-carboxylic acid (4-dimethylcarbamoyl-2-methoxy-phenyl)-amide] |
| 4130 | COc1ccc(Cl)cc1NC(=O)c1csc2cnc(N(C)CCO)nc12 [Example 157, 2-[(2-Hydroxy-ethyl)-methyl-amino]-thieno[3,2-d]pyrimidine-7-carboxylic acid (5-chloro-2-methoxy-phenyl)-amide] |
| 3700 | COc1ccc(/C=C/CO)cc1NC(=O)c1cnn2cccnc12 [Example 152, Pyrazolo[1,5-alpha]pyrimidine-3-carboxylic acid [5-(3-hydroxy-propenyl)-2-methoxy-phenyl]-amide] |
| 2450 | O=C(Nc1cc(Cl)ccc1OCCCO)c1csc2cncnc12 [Example 139, Thieno[3,2-d]pyrimidine-7-carboxylic acid [5-chloro-2-(3-hydroxy-propoxy)-phenyl]-amide] |
| 2310 | O=C(Nc1nc2ccccc2n1CCCO)c1csc2cncnc12 [Example 136, Thieno[3,2-d]pyrimidine-7-carboxylic acid [1-(3-hydroxy-propyl)-1H-benzoimidazol-2-yl]-amide] |
| 613 | COc1cc2ccccc2cc1NC(=O)c1cnn2cccnc12 [Example 104, Pyrazolo[1,5-alpha]pyrimidine-3-carboxylic acid (3-methoxy-naphthalen-2-yl)-amide] |
| 605 | O=C(Nc1cc(Cl)ccc1OC1CCCC(O)C1)c1cnn2cccnc12 (stereo not drawn) [Example 103, Pyrazolo[1,5-alpha]pyrimidine-3-carboxylic acid [5-chloro-2-(3-hydroxy-cyclohexyloxy)-phenyl]-amide] |
| 596 | COc1cc2cc[nH]c2cc1NC(=O)c1csc2cncnc12 [Example 102, Thieno[3,2-d]pyrimidine-7-carboxylic acid (5-methoxy-1H-indol-6-yl)-amide] |
| 455 | O=C(Nc1cc2cccnc2cc1OC1CCNC1)c1csc2cncnc12 (stereo not shown) [Example 88, Thieno[3,2-d]pyrimidine-7-carboxylic acid [7-(pyrrolidin-3-yloxy)-quinolin-6-yl]-amide hydrochloride] |
| 312 | O=C(Nc1cc(Cl)ccc1N1CCCC1)c1cnn2cccnc12 [Example 78, Pyrazolo[1,5-alpha]pyrimidine-3-carboxylic acid (5-chloro-2-pyrrolidin-1-yl-phenyl)-amide] |
| 199 | O=C(Nc1cc(CO)ccc1N1CCCCC1)c1cnn2cccnc12 [Example 66, Pyrazolo[1,5-alpha]pyrimidine-3-carboxylic acid (5-hydroxymethyl-2-piperidin-1-yl-phenyl)-amide] |
| 177 | O=C(Nc1cc2ccccc2cc1OC1CCC(O)C1)c1cnn2cccnc12 (stereo not drawn) [Example 65, Pyrazolo[1,5-alpha]pyrimidine-3-carboxylic acid [3-(3-hydroxy-cyclopentyloxy)-naphthalen-2-yl]-amide] |
| 107 | NC(=O)c1cnc2c(C(=O)Nc3cc(Cl)ccc3OC3CCC(O)CC3)cnn2c1 (stereo not drawn) [Example 52, Pyrazolo[1,5-alpha]pyrimidine-3,6-dicarboxylic acid 6-amide-3-{[5-chloro-2-(4-hydroxy-cyclohexyloxy)-phenyl]-amide}] |
